In one series the test system is patient. Nature of the series: Subcutaneous continuous infusion of Levodopa in a patient. It is filed as in vivo, human.
Series [1] can be described thus: Solubility of Levodopa in HCl and after raising the pH with glucose. The format is physicochemical. Here is the method: Levodopa can be dissolved in HCl up to 100 mg/mL without any precipitation. To raise the pH with glucose in a way according to the invention and still get a stabile solution, it is possible to obtain 10 mg/mL Levodopa, and with 2 mg/mL Carbidopa addition 20 mg/mL Levodopa. A precipitate appears at 30 mg/mL Levodopa in the presence of 3 mg/mL Carbidopa. The steps of producing the solutions of the invention are made rather quickly up to the addition of glucose.

The next series deals with PD patients. The series can be described thus: Continuous intravenous infusion of Levodopa in PD patients. It is filed as in vivo, human. Here is the method:
Continuous infusion of Levodopa has been given to PD patients during 12 hours a day for 10 days. The daily dosage of Levodopa was 608 mg and the infusion rate was 51 mg/h. Fifty % of the patients received traditional oral administration of Carbidopa and 50% received Benserazide.

The conditions of series [2]: dissolved in HCl and diluted with glucose, Levodopa only active ingredient; cited from earlier work.
For series [3] the following is noted: cited from earlier work.

Consider one compound from patent US8735382B2, “Infusion and injection solution of levodopa” (Dizlin Medical Design AB, priority 2004, dated 2014).

Entries after “also recorded” stand apart in the source; their conditions may differ. Where only a bound is given, the exact number is not on record here.

On to `N[C@@H](Cc1ccc(O)c(O)c1)C(=O)O` [Levodopa, 3-(3,4-dihydroxiphenyl)-L-alanine], for which the “Levodopa blood concentrations during the day” value in the series on patient (same patient, one day of continuous intravenous infusion) is on record as “some fluctuations of the Levodopa blood concentrations occurred”. For the same compound, in the series with patient (subcutaneous infusion), the clinical effect result is given as “positive clinical effect; also recorded: good clinical effect” and the “distribution of Levodopa to the blood” value is “fast distribution of Levodopa to the blood with measurable concentrations”. Also, the “dose dependence of response” value in the series with patient (subcutaneous infusions, one patient) is reported as “responded in a dose dependant manner”. The “Levodopa concentration dissolved without any precipitation” value in series [1] (in HCl) is listed as “up to 100 mg/mL”. The “Levodopa concentration at which a precipitate appears” value in series [1] (in the presence of 3 mg/mL Carbidopa) is 30 mg/mL. Further, the “Levodopa concentration obtainable as stabile solution” value in series [1] (pH raised with glucose according to the invention, no Carbidopa) was 10 mg/mL. Further, in series [1] (pH raised with glucose, with 2 mg/mL Carbidopa addition), the “Levodopa concentration obtainable as stabile solution” value is 20 mg/mL. Besides, the “follow-up time at which the long-term effect was stable” value in the series with PD patients (after the concluded infusion) is 6-10 months. Moreover, the “clinical fluctuations (dyskinesia and bradykinesia)” value with PD patients (intravenous, 12 hours a day for 10 days, 608 mg daily, seventeen patients, preliminary) was “both bradykinesia and above all dyskinesia decline; also recorded: pronounced decrease in clinical fluctuations”. Also, in the series with PD patients (intravenous, 12 hours for 10 days), the “duration of the long-lasting effect” value is on record as “at least 5 months”. Further, the “dyskinesia during infusion treatment, single case” value in the series with PD patients (person, PD for 20 years) is “dyskinesia disappeared almost completely”. Moreover, the “therapeutic interval from analysis of Levodopa in plasma” value in the series on PD patients (plasma, not uniform in the material) is listed as “widening of the therapeutic interval”. In addition, the “required oral Levodopa dosage, post-treatment (mean)” value in the series with PD patients (seventeen patients, after intravenous infusion treatment) is reported as 773 mg/day. The “required oral Levodopa dosage, pre-treatment (mean)” value in the series with PD patients (seventeen patients, before intravenous infusion treatment) was 1003 mg/day. Moreover, the “Levodopa concentration above which Levodopa precipitates” value in series [2] was greater than 5 mg/mL. Besides, the “delay in concentration levels between plasma and CNS” value in series [3] (in vivo) is “about 90 minutes”. Also, the “fraction of the total dose that enters the blood circulation” value in series [3] (oral administration) was “approximately 10%”.
